Test results published in patent US10005779B2, “1′,4′-thio nucleosides for the treatment of HCV” (priority 2013, dated 2018).
Read-outs that look alike come from different tables or passages of the source.

Tests used:
[1] = Cytotoxicity evaluation, CellTiter-Blue Cell Viability Assay; assay type: cell-based; settings: human, Zluc cells (HCV replicon cells)
Method: For cytotoxicity evaluation, Zluc cells were treated with compound as described herein, and cell viability was monitored using the CellTiter-Blue Cell Viability Assay (Promega) by adding 20 μL of the assay solution to each well. The plates were then incubated at 37° C./5% CO2 for at least 3 hours.

[2] = test system: HCV genotype 1b replicon in Huh-7-derived cell line (Zluc); assay: microbe, parasite or virus in culture; assay type: cell-based; settings: Hepatitis C virus, read-out: HCV Replicon EC50
Method: Huh-7-derived cell line (Zluc) that harbors an HCV genotype 1b replicon and a luciferase reporter gene was grown in Dulbecco's Modified Eagle Medium (DMEM) supplemented with 10% fetal bovine serum, 2 mM GlutaMAX, 1% MEM nonessential amino acids, 100 IU/mL penicillin, 100 μg/mL streptomycin, and 0.5 mg/mL Geneticin® (G418). For dose response testing the cells were seeded in 96-well plates at 7.5×10^3 cells per well in a volume of 50 μL, and incubated at 37° C./5% CO2. Drug solutions were made up freshly in Huh-7 media as 2× stocks. Ten additional 5-fold dilutions were prepared from these stocks in DMEM without G418. At least three hours after Zluc cells were seeded, drug treatment was initiated by adding 50 μL of drug dilutions to the plates in duplicate. […] Cells were then incubated at 37° C./5% CO2. Alternatively, compounds were tested at two concentrations (1 μM and 10 μM). […] For this, media was removed from the plates via gentle tapping. Fifty microliters of ONE-glo luciferase assay reagent was added to each well. […] The EC50 values were calculated from dose response curves from the resulting best-fit equations determined by Microsoft Excel and XLfit 4.1 software.

[3] = target: T1, HCV genotype 1b NS5B polymerase containing the S282T mutation (Hepatitis C virus genotype 1b, UniProt Q9WMX2, S2701T); assay: HCV polymerase enzyme assay, S282T mutant; assay type: biochemical
T1 construct: recombinant HCV polymerases (with a deletion of the 21 carboxy terminal amino acids); made in house
Excerpt: (§1) Test compounds in the form of nucleoside triphosphates were examined for inhibitory activity against purified HCV polymerase in a standard assay. Bacterial expression constructs encoding the approximately 65 kDa HCV genotype 1b NS5B protein were used to generate recombinant HCV polymerases (with a deletion of the 21 carboxy terminal amino acids). Both the wild-type genotype 1b protein and protein containing the S282T mutation were expressed and purified for use in the enzymatic activity assay.
(§2) The enzymatic activity assay measured the inhibitory effect of increasing concentrations of test compound on the incorporation of α-[^33P]-labeled nucleotide into trichloroacetic acid-precipitable material. Recombinant polymerase and synthetic RNA template were combined in reaction buffer containing ribonucleoside triphosphates, α-[^33P]-labeled nucleotide and eight concentrations of test compound in three-fold dilutions. Reactions were incubated for two hours at 30° C.
(§3) Reactions were terminated by the addition of ice-cold trichloroacetic acid and sodium pyrophosphate to promote precipitation of newly-synthesized ribonucleic acid. Precipitable material from the reactions was collected by filtration onto 96-well filter plates, washed extensively with water, and quantified by liquid scintillation.
(§4) The inhibitory activity of test compounds was determined by fitting results to dose-response curves using XLfit software.

[4] = target: T2, wild-type HCV genotype 1b NS5B polymerase (Hepatitis C virus genotype 1b, UniProt Q9WMX2); assay: HCV polymerase enzyme assay, wild-type; assay type: biochemical
T2 construct: recombinant HCV polymerases (with a deletion of the 21 carboxy terminal amino acids); made in house
Excerpt: as §1, §2, §3, §4

[5] = Zluc cells, 72 hours of incubation, luciferase readout

Q: What does the source list for `CC(C)(C)C(=O)SCCOP(=O)(NCc1ccccc1)OC[C@H]1S[C@@H](n2ccc(=O)[nH]c2=O)[C@H](O)[C@@H]1O` (mixture of isomers) [3 mixture of diastereomers]?
A: CC50 at 72 h [1]: > 50 µM; EC50 [2, 5]: > 10 µM

Q: For `CC(C)OC(=O)[C@H](C)NP(=O)(OC[C@H]1S[C@@H](n2ccc(=O)[nH]c2=O)[C@](C)(O)[C@@H]1O)Oc1ccccc1` (single isomer, unassigned) [1b diastereomer 1], which CC50 at 72 h [1] is on record?
A: > 50 µM

Q: And the EC50 ([2]; 72 h)?
A: > 10 µM

Q: For `O=c1ccn([C@@H]2S[C@H](COP(=O)(O)OP(=O)(O)OP(=O)(O)O)[C@@H](O)[C@H]2O)c(=O)[nH]1` [Compound 202], which IC50 [3] is on record?
A: 0.25 to 1 µM

Q: What about the IC50 [4] of the same compound?
A: 0.25 to 1 µM

Q: With `CC(C)OC(=O)[C@H](C)N[P@](=O)(OC[C@H]1S[C@@H](n2ccc(=O)[nH]c2=O)[C@H](O)[C@@H]1O)Oc1ccccc1` [Compound 2bii] as the compound, how does the CC50 at 72 h [1] read?
A: > 50 µM

Q: What about the EC50 [2, 5] of the same compound?
A: > 10 µM

Q: With `CC(C)OC(=O)[C@@H](C)NP(=O)(OC[C@H]1S[C@@H](n2ccc(=O)[nH]c2=O)[C@H](O)[C@@H]1O)Oc1ccccc1` (mixture of isomers) [2a mixture of diastereomers] as the compound, how does the CC50 at 72 h [1] read?
A: > 50 µM

Q: What about the EC50 [2, 5] of the same compound?
A: > 10 µM

Q: With `CC(C)OC(=O)[C@H](C)NP(=O)(OCCSC(=O)C(C)(C)C)OC[C@H]1S[C@@H](n2ccc(=O)[nH]c2=O)[C@H](O)[C@@H]1O` (mixture of isomers) [4b mixture of diastereomers] as the compound, how does the CC50 at 72 h [1] read?
A: > 50 µM

Q: What about the EC50 [2, 5] of the same compound?
A: > 10 µM

Q: What does the source list for `CC(C)OC(=O)[C@H](C)N[P@@](=O)(OC[C@H]1S[C@@H](n2ccc(=O)[nH]c2=O)[C@H](O)[C@@H]1O)Oc1ccccc1` [Compound 2bi]?
A: CC50 at 72 h [1]: > 50 µM; EC50 [2, 5]: > 10 µM

Q: For `Nc1nc2c(ncn2[C@@H]2S[C@H](COP(=O)(O)OP(=O)(O)OP(=O)(O)O)[C@@H](O)[C@H]2O)c(=O)[nH]1` [Compound 203], which IC50 [3] is on record?
A: 1 to 10 µM

Q: And the IC50 [4]?
A: 0.25 to 1 µM

Q: For `CC(C)OC(=O)[C@H](C)NP(=O)(OCCSC(=O)C(C)(C)C)OC[C@H]1S[C@@H](n2ccc(=O)[nH]c2=O)[C@H](O)[C@@H]1O` (single isomer, unassigned) [4b diastereomer 1], which CC50 at 72 h [1] is on record?
A: > 50 µM

Q: What about the EC50 [2, 5] of the same compound?
A: > 10 µM

Q: Which results are given for `C[C@@]1(O)[C@H](O)[C@@H](COP(=O)(O)OP(=O)(O)OP(=O)(O)O)S[C@H]1n1ccc(=O)[nH]c1=O` [Compound 201]?
A: IC50 [3]: > 10 µM; IC50 [4]: 1 to 10 µM
